Source: US3941842A, “P,P'-Disubstituted α-trichloromethylbenzylanilines” (priority 1972, dated 1976)
Where “and” joins values, the source holds several entries; their conditions need not be identical. Equal entries are not always repeated.

Legend:
Phormia regina = assay: whole plant or invertebrate; details: for LD50: Phormia regina, read-out: Topical LD50, Phormia regina, Alone; for LD50 / Topical LD50, Phormia regina, with pb: topical; for Topical LD50, Phormia regina, with pb: synergized with piperonyl butoxide
Description: The compounds of the present invention were tested for insecticidal activity by standard methods, and compared with the insecticidal activities of DDT and symmetrical analogs of DDT, such methoxychlor. Toxicological methods for the determination of the topical LD50 values to adult female SNAIDM and RSP houseflies, Musca domestica L. and to Phormia regina, and LC50 values to Culex pipiens quinquefasciatus Say, and Anopheles albimanus Weid mosquitoes were described by Metcalf el al., 44 Bull. World Health Org. […] The methods for evaluation of metabolism by mouse liver homogenate and by female RSP housefly and salt-marsh caterpillar larvae Estigmene acrea Drury, were described by Kapoor et al., 18 J. Agr. […] The techniques for model eocsystem evluation were described by Metcalf et al., 5 J. Environ. Sci. Tech.
(§1) Since piperonyl butoxide serves to block the action of MFO, the synergized LD50 values express the intrinsic toxicity of the compounds. With the detoxifying action of MFO enzymes blocked, the intrinsic toxicity of the compounds can thus be measured.

Musca domestica Snaidm = assay: Topical LD50 to adult female SNAIDM houseflies; details: for LD50: Musca domestica, read-out: Topical LD50, Musca domestica Snaidm, Alone; for LD50 / Topical LD50, Musca domestica Snaidm, with pb: topical; for Topical LD50, Musca domestica Snaidm, with pb: SNAIDM strain, synergized with piperonyl butoxide; for SR, Musca domestica Snaidm: synergistic ratio: LD50 alone/LD50 synergized with piperonyl butoxide
Description: (§2) The compounds of the present invention were tested for insecticidal activity by standard methods, and compared with the insecticidal activities of DDT and symmetrical analogs of DDT, such methoxychlor. Toxicological methods for the determination of the topical LD50 values to adult female SNAIDM and RSP houseflies, Musca domestica L. and to Phormia regina, and LC50 values to Culex pipiens quinquefasciatus Say, and Anopheles albimanus Weid mosquitoes were described by Metcalf el al., 44 Bull. World Health Org. 363 (1971). The methods for evaluation of metabolism by mouse liver homogenate and by female RSP housefly and salt-marsh caterpillar larvae Estigmene acrea Drury, were described by Kapoor et al., 18 J. Agr. Food Chem. 1145 (1970). The techniques for model eocsystem evluation were described by Metcalf et al., 5 J. Environ. Sci. Tech. 709 (1971).
as §1

Musca domestica Rsp = assay: Topical LD50 to adult female RSP houseflies; details: for LD50: Musca domestica, read-out: Topical LD50, Musca domestica Rsp, Alone; for LD50 / Topical LD50, Musca domestica Rsp, with pb: topical; for Topical LD50, Musca domestica Rsp, with pb: RSP strain, synergized with piperonyl butoxide; for SR, Musca domestica Rsp: synergistic ratio: LD50 alone/LD50 synergized with piperonyl butoxide
Description: as §2, §1

[1] = system: Anopheles albimanus larvae; assay: LC50 to Anopheles albimanus larvae; format: in vivo, Anopheles albimanus Weid
From the text: (§3) World Health Org. 363 (1971). […] Food Chem. 1145 (1970). […] Sci. Tech. 709 (1971). The results are detailed in Table II. ##SPC1##

Culex fatigans larvae = assay: LC50 to Culex fatigans larvae; format: in vivo, Culex pipiens quinquefasciatus Say
From the text: as §3

[2] = system: Musca domestica (SNAIDM and RSP strains), Phormia regina, Culex fatigans and Anopheles albimanus; assay: Insecticidal activity over the test insects (Table II, summarised in words); format: in vivo; details: for insecticidal effectiveness / toxicity (in words): overall, test insects of Table II
Description: as §2, §1

SMILES | LD50 (Phormia regina) | Topical LD50, Phormia regina, with pb (Phormia regina) | LD50 (Musca domestica Snaidm) | Topical LD50, Musca domestica Snaidm, with pb (Musca domestica Snaidm) | SR, Musca domestica Snaidm (Musca domestica Snaidm) | LD50 (Musca domestica Rsp) | Topical LD50, Musca domestica Rsp, with pb (Musca domestica Rsp) | SR, Musca domestica Rsp (Musca domestica Rsp) | LC50 Anopheles albimanus larvae [1] | LC50 Culex fatigans larvae (Culex fatigans larvae) | insecticidal effectiveness / toxicity (in words) [2] | synergism in Phormia (in words) (Phormia regina; with piperonyl butoxide) | SR, Phormia regina (Phormia regina; synergistic ratio: LD50 alone/LD50 synergized with piperonyl butoxide) | SR values (in words) ([2]; synergism by piperonyl butoxide)
COc1ccc(C(Nc2ccc(C)c(C)c2)C(Cl)(Cl)Cl)cc1 (centres unmarked) [XXIII] | 77.5 mg/kg | 15.5 μg per g | 85 mg/kg | 6.5 μg per g | 13.0 | 100 mg/kg | 28.0 μg per g | 3.6 | 0.18 ppm | 0.30 ppm | Toxicity was also substantially decreased | – | – | –
CCOc1ccc(C(Nc2ccccc2OCC)C(Cl)(Cl)Cl)c(OCC)c1 (centres unmarked) [XXII] | > 250 mg/kg | > 250 μg per g | > 500 mg/kg | 500 μg per g | – | > 500 mg/kg | 500 μg per g | – | > 1.0 ppm | > 1.0 ppm | Toxicity was also substantially decreased | – | – | –
COc1ccc(NC(c2ccc(OC)cc2)C(Cl)(Cl)Cl)cc1 (centres unmarked) [Compound II] | 118 mg/kg | 35.0 μg per g | > 500 mg/kg | 5.5 μg per g | 100 and > 100 | 500 mg/kg | 13.5 μg per g | 37 and > 37 | 0.64 ppm | > 1.0 ppm | very low toxicity | substantially synergized in Phormia | – | –
Cc1ccc(NC(c2ccc(C)cc2)C(Cl)(Cl)Cl)cc1 (centres unmarked) [IV] | 33.7 mg/kg | 21.0 μg per g | 43 mg/kg | 5.0 μg per g | 8.6 | 43 mg/kg | 6.5 μg per g | 6.6 | 0.21 ppm | 0.18 ppm | one of the more insecticidal compounds | – | – | –
CCOc1ccc(NC(c2ccccc2)C(Cl)(Cl)Cl)cc1 (centres unmarked) [XIX] | > 250 mg/kg | > 250 μg per g | > 500 mg/kg | 31.0 μg per g | > 16 | > 500 mg/kg | 120 μg per g | > 4 | 0.61 ppm | > 1.0 ppm | Toxicity was greatly decreased | – | – | –
CCCCOc1ccc(C(Nc2ccc(OC)cc2)C(Cl)(Cl)Cl)cc1 (centres unmarked) [XVIII] | > 250 mg/kg | 67.5 μg per g | 370 mg/kg | 12.5 μg per g | 30 | 230 mg/kg | 32.0 μg per g | 7.2 | 0.77 ppm | 0.60 ppm | Toxicity was also substantially decreased | – | – | –
COc1ccc(NC(c2ccc(Cl)cc2)C(Cl)(Cl)Cl)cc1 (centres unmarked) [VI] | 128 mg/kg | 80 μg per g | 39 mg/kg | 6.5 μg per g | 6.0 | 49 mg/kg | 14.0 μg per g | 3.4 | 0.37 ppm | 0.44 ppm | – | – | 1.6 | higher SR values
